Molecules are shown by their SMILES. pKi: −log10 of the molar value. Bounds are passed on as bounds.

The term pKi denotes the Ki on a negative log10 scale, so that one unit is a factor of ten. Read a low pKi as a large Ki.

Chain of c-MET (P08581 25-1390): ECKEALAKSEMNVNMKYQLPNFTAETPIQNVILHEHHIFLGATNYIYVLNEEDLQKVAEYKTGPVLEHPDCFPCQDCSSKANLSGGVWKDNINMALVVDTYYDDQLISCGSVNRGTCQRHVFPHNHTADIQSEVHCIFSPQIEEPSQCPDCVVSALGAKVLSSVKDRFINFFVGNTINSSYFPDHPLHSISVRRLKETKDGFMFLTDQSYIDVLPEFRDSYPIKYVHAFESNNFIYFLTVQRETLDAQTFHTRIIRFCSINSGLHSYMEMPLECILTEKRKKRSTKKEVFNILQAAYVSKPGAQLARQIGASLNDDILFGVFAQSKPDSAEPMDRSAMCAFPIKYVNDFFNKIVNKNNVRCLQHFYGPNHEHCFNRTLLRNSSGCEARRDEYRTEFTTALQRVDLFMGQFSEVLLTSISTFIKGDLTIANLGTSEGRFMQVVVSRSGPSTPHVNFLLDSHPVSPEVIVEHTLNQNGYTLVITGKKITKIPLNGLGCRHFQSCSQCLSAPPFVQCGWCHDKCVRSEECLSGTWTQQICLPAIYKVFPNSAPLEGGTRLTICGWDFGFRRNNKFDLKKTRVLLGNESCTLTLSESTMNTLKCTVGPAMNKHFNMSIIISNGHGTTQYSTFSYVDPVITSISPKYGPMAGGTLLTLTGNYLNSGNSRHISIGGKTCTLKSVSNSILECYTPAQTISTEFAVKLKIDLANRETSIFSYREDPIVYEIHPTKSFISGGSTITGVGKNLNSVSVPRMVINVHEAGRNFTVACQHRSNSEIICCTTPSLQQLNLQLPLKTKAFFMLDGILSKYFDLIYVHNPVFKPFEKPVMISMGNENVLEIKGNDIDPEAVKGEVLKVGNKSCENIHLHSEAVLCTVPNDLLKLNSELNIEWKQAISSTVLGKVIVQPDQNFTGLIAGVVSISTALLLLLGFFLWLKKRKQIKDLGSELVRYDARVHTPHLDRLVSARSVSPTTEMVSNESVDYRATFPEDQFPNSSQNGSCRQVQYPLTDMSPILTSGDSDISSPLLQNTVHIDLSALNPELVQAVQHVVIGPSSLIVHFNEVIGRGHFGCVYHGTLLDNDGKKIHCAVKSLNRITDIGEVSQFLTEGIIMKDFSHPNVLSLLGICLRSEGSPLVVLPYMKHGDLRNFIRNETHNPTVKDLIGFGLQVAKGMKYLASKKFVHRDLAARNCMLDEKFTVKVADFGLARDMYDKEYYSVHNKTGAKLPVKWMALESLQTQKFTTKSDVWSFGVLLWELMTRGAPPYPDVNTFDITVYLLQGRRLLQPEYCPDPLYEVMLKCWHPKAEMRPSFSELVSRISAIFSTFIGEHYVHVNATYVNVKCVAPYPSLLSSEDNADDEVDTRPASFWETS

In this assay the target is c-MET (Homo sapiens, UniProt P08581). Nature of the assay: Ki determination for the inhibition of c-MET (standard radiometric 33P-ATP kinase assay, polyE4Y substrate). Type of assay: biochemical. The conditions noted are these: 1.0 nM c-Met, 35 μM ATP, 0.5 mg/mL polyE4Y, 20 min; competitive tight-binding fit. The gist of the method:
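Ki obtained by fitting data to competitive tight-binding inhibition kinetics. c-Met at 1.0 nM phosphorylated polyE4Y (0.5 mg/mL) with 35 μM 33P-ATP for 20 min in pH 7.5 HEPES buffer with MgCl2, NaCl, BSA and DTT. Incorporated label measured by scintillation after TCA precipitation on filters.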
On to `CC(=O)Nc1ccc(-c2cnc(N)c(-c3nnnn3-c3cccc(F)c3F)c2)s1` [I-A-263], for which the pKi was no less than 7.00.
For `COC[C@H]1CCCN1Cc1ccc(-c2cnc(N)c(-c3nnnn3-c3cccc(F)c3F)c2)cc1` [I-A-264], the pKi is no less than 7.00.
Consider `Nc1ncc(-c2ccc(CN3CC4CC3CO4)cc2)cc1-c1nnnn1-c1cccc(F)c1F` (centres unmarked) [I-A-265], for which the pKi is no less than 7.00.
Consider `CC(C)(C#N)c1ccc(-c2cnc(N)c(-c3nnnn3-c3cccc(F)c3F)c2)cc1` [I-A-266], for which the negative logarithm of the Ki (pKi) is no less than 7.00.
`C[C@@H]1CC[C@@H](C)N1Cc1ccc(-c2cnc(N)c(-c3nnnn3-c3cccc(F)c3F)c2)cc1` [I-A-267]: the pKi is no less than 7.00.
In the case of `CC(C)(O)c1ccc(-c2cnc(N)c(-c3nnnn3-c3cccc(F)c3F)c2)cc1` [I-A-268], the negative logarithm of the Ki (pKi) was no less than 7.00.
Take `Nc1ncc(-c2cccc(NC(=O)N3CCCC3)c2)cc1-c1nnnn1-c1cccc(F)c1F` [I-A-269]: the pKi is 6.00 to 7.00.
Turning to `CN1CCN(C(=O)Nc2cccc(-c3cnc(N)c(-c4nnnn4-c4cccc(F)c4F)c3)c2)CC1` [I-A-270], the pKi was 6.00 to 7.00.
As for `COCCOC(=O)Nc1cccc(-c2cnc(N)c(-c3nnnn3-c3cccc(F)c3F)c2)c1` [I-A-271], the figure is 6.00 to 7.00; as for `Nc1ncc(-c2cccc(NC(=O)Nc3cccnc3)c2)cc1-c1nnnn1-c1cccc(F)c1F` [I-A-272], no less than 7.00; as for `Nc1ncc(-c2cccc(NC(=O)NC3CCCCO3)c2)cc1-c1nnnn1-c1cccc(F)c1F` (centres unmarked) [I-A-273], no less than 7.00.
For `CN(C(=O)Nc1cccc(-c2cnc(N)c(-c3nnnn3-c3cccc(F)c3F)c2)c1)c1ccccc1` [I-A-274], the pKi is 6.00 to 7.00.
Consider `Nc1ncc(-c2cccc(NC(=O)Nc3cccs3)c2)cc1-c1nnnn1-c1cccc(F)c1F` [I-A-275], for which the negative logarithm of the Ki (pKi) is 6.00 to 7.00.
Take `Nc1ncc(-c2ccc(NC(=O)N3CCCC3)cc2)cc1-c1nnnn1-c1cccc(F)c1F` [I-A-276]: the pKi is no less than 7.00.
For `COCCOC(=O)Nc1ccc(-c2cnc(N)c(-c3nnnn3-c3cccc(F)c3F)c2)cc1` [I-A-277], the pKi is no less than 7.00.
Molecule `Nc1ncc(-c2ccc(NC(=O)Nc3cccnc3)cc2)cc1-c1nnnn1-c1cccc(F)c1F` [I-A-278] gave a pKi of 6.00 to 7.00.
On to `CN(C(=O)Nc1ccc(-c2cnc(N)c(-c3nnnn3-c3cccc(F)c3F)c2)cc1)c1ccccc1` [I-A-279], for which the pKi was 6.00 to 7.00.
For `Nc1ncc(-c2ccc(NC(=O)c3ccncc3)cc2)cc1-c1nnnn1-c1cccc(F)c1F` [I-A-280] the value was no less than 7.00; for `CCNC(=O)Nc1ccc(-c2cnc(N)c(-c3nnnn3-c3cccc(F)c3F)c2)cc1` [I-A-281], no less than 7.00.
In turn, `Nc1ncc(-c2ccc(NC(=O)Nc3cccs3)cc2)cc1-c1nnnn1-c1cccc(F)c1F` [I-A-282] gave a pKi of 6.00 to 7.00.
`Nc1ncc(-c2ccc(OCCO)cc2)cc1-c1nnnn1-c1cccc(F)c1F` [I-A-283] had a pKi of no less than 7.00.
The molecule `Nc1ncc(-c2ccc3c(c2)OC(F)(F)O3)cc1-c1nnnn1-c1cccc(F)c1F` [I-A-285] gave a pKi of 6.00 to 7.00.
Molecule `Nc1ccc(-c2cnc(N)c(-c3nnnn3-c3cccc(F)c3F)c2)cc1F` [I-A-286] showed a pKi of no less than 7.00.
For `Nc1ncc(-c2cc(Cl)c(N)c(Cl)c2)cc1-c1nnnn1-c1cccc(F)c1F` [I-A-287] the value was no less than 7.00.
For `Nc1ncc(-c2cc(F)cc(F)c2)cc1-c1nnnn1-c1cccc(F)c1F` [I-A-288], the negative logarithm of the Ki (pKi) is 6.00 to 7.00.
As for `CN1CCOc2cc(-c3cnc(N)c(-c4nnnn4-c4cccc(F)c4F)c3)ccc21` [I-A-289], the figure is 6.00 to 7.00; as for `COc1ccc(-c2cnc(N)c(-c3nnnn3-c3cccc(F)c3F)c2)cc1F` [I-A-290], no less than 7.00.
`Nc1ncc(-c2cc(O)c(F)c(F)c2)cc1-c1nnnn1-c1cccc(F)c1F` [I-A-291] showed a pKi of 6.00 to 7.00.
As for `Nc1ncc(-c2cc(F)ccc2O)cc1-c1nnnn1-c1cccc(F)c1F` [I-A-292], the figure is no less than 7.00.
On to `Nc1ncc(-c2cc(F)ccc2F)cc1-c1nnnn1-c1cccc(F)c1F` [I-A-294], for which the pKi is 6.00 to 7.00.
As for `Nc1ncc(-c2ccc(O)c(F)c2)cc1-c1nnnn1-c1cccc(F)c1F` [I-A-295], the figure is no less than 7.00; as for `COc1cc(-c2cnc(N)c(-c3nnnn3-c3cccc(F)c3F)c2)cc(OC)c1OC` [I-A-296], 6.00 to 7.00; as for `Nc1ccc(-c2cnc(N)c(-c3nnnn3-c3cccc(F)c3F)c2)cc1N` [I-A-298], no less than 7.00.
On to `COc1cc(-c2cnc(N)c(-c3nnnn3-c3cccc(F)c3F)c2)ccc1O` [I-A-299], for which the negative-log Ki (pKi) is no less than 7.00.
For `Nc1ncc(-c2cccc(F)c2F)cc1-c1nnnn1-c1cccc(F)c1F` [I-A-301] the value was 6.00 to 7.00; for `Nc1ncc(-c2cc(F)c(N)c(F)c2)cc1-c1nnnn1-c1cccc(F)c1F` [I-A-303], no less than 7.00.
The molecule `Nc1ncc(-c2ccc3nccnc3c2)cc1-c1nnnn1-c1cccc(F)c1F` [I-A-304] showed a negative-log Ki (pKi) of 6.00 to 7.00.
As for `Nc1ncc(-c2cccc3c2OCO3)cc1-c1nnnn1-c1cccc(F)c1F` [I-A-305], the figure is no less than 7.00; as for `COc1ccc(OC)c(-c2cnc(N)c(-c3nnnn3-c3cccc(F)c3F)c2)c1` [I-A-306], 6.00 to 7.00; as for `Nc1nc2ccc(-c3cnc(N)c(-c4nnnn4-c4cccc(F)c4F)c3)cc2s1` [I-A-308], no less than 7.00.
The molecule `COc1ccc(-c2cnc(N)c(-c3nnnn3-c3cccc(F)c3F)c2)cc1OC` [I-A-309] had a pKi of no less than 7.00.
In the case of `Nc1ncc(-c2cccc3c2OC(F)(F)O3)cc1-c1nnnn1-c1cccc(F)c1F` [I-A-310], the pKi was 6.00 to 7.00.
`Nc1ccc(-c2cnc(N)c(-c3nnnn3-c3cccc(F)c3F)c2)cc1[N+](=O)[O-]` [I-A-312] had a pKi of no less than 7.00.
Turning to `Nc1ncc(-c2ccccc2F)cc1-c1nnnn1-c1cccc(F)c1F` [I-A-313], the pKi was no less than 7.00.
`Nc1ncc(-c2cccc(F)c2)cc1-c1nnnn1-c1cccc(F)c1F` [I-A-314]: the negative-log Ki (pKi) is no less than 7.00.
`CCOc1cccc(-c2cnc(N)c(-c3nnnn3-c3cccc(F)c3F)c2)c1` [I-A-315] showed a pKi of 6.00 to 7.00.
As for `COC(=O)c1ccc(-c2cnc(N)c(-c3nnnn3-c3cccc(F)c3F)c2)cc1` [I-A-316], the figure is 6.00 to 7.00.
For `COC(=O)c1cccc(-c2cnc(N)c(-c3nnnn3-c3cccc(F)c3F)c2)c1` [I-A-317], the pKi was 6.00 to 7.00.
In turn, `Nc1ncc(-c2ccc(F)nc2)cc1-c1nnnn1-c1cccc(F)c1F` [I-A-318] gave a pKi of 6.00 to 7.00.
In the case of `Nc1ncc(-c2ccnc(F)c2)cc1-c1nnnn1-c1cccc(F)c1F` [I-A-319], the pKi was 6.00 to 7.00.
In the case of `Nc1ncc(-c2cccc(C(=O)N3CCOCC3)c2)cc1-c1nnnn1-c1cccc(F)c1F` [I-A-320], the pKi was 6.00 to 7.00.
The molecule `Nc1ncc(-c2ccc3ncccc3c2)cc1-c1nnnn1-c1cccc(F)c1F` [I-A-321] had a pKi of no less than 7.00.
On to `CC1(C)CN(c2cccc(-c3cnc(N)c(-c4nnnn4-c4cccc(F)c4F)c3)c2)C1=O` [I-A-324], for which the pKi was 6.00 to 7.00.
In turn, `Nc1ncc(-c2ccc(C3CCOC(=O)N3)cc2)cc1-c1nnnn1-c1cccc(F)c1F` (centres unmarked) [I-A-325] had a pKi of no less than 7.00.
Molecule `COC(=O)[C@H](CC(C)C)NC(=O)Nc1cccc(-c2cnc(N)c(-c3nnnn3-c3cccc(F)c3F)c2)c1` [I-A-326] had a pKi of 6.00 to 7.00.
`COC(=O)C(C)NC(=O)Nc1cccc(-c2cnc(N)c(-c3nnnn3-c3cccc(F)c3F)c2)c1` (centres unmarked) [I-A-327] showed a pKi of 6.00 to 7.00.
Consider `CC(C)(C)NC(=O)Nc1cccc(-c2cnc(N)c(-c3nnnn3-c3cccc(F)c3F)c2)c1` [I-A-328], for which the pKi was no less than 7.00.
Consider `Nc1ncc(-c2cccc(NC(=O)NC3CCCC3)c2)cc1-c1nnnn1-c1cccc(F)c1F` [I-A-329], for which the pKi is no less than 7.00.
For `COC(=O)[C@H](CC(C)C)NC(=O)Nc1ccc(-c2cnc(N)c(-c3nnnn3-c3cccc(F)c3F)c2)cc1` [I-A-330], the pKi was 6.00 to 7.00.
For `COC(=O)C(C)NC(=O)Nc1ccc(-c2cnc(N)c(-c3nnnn3-c3cccc(F)c3F)c2)cc1` (centres unmarked) [I-A-331], the pKi was no less than 7.00.
Turning to `CC(C)(C)NC(=O)Nc1ccc(-c2cnc(N)c(-c3nnnn3-c3cccc(F)c3F)c2)cc1` [I-A-332], the negative logarithm of the Ki (pKi) is no less than 7.00.
For the molecule `Nc1ncc(-c2ccc(NC(=O)NC3CCCC3)cc2)cc1-c1nnnn1-c1cccc(F)c1F` [I-A-333], the pKi is 6.00 to 7.00.
For the molecule `N#CCC(=O)Nc1ccc(-c2cnc(N)c(-c3nnnn3-c3cccc(F)c3F)c2)cc1` [I-A-334], the pKi is no less than 7.00.
As to `CC(=O)N1CCCC1c1ccc(-c2cnc(N)c(-c3nnnn3-c3cccc(F)c3F)c2)cc1` (centres unmarked) [I-A-335], the pKi is no less than 7.00.
Molecule `N#Cc1cc(-c2cnc(N)c(-c3nnnn3-c3cccc(F)c3F)c2)ccc1N1CCCC1` [I-A-336] showed a negative logarithm of the Ki (pKi) of 6.00 to 7.00.
Molecule `CC(=O)N(C)c1ccc(-c2cnc(N)c(-c3nnnn3-c3cccc(F)c3F)c2)cc1` [I-A-337] showed a pKi of no less than 7.00.
As for `Nc1ncc(-c2ccc(NC(=O)CO)cc2)cc1-c1nnnn1-c1cccc(F)c1F` [I-A-338], the pKi was no less than 7.00.
Turning to `CC(=O)Nc1cc(-c2cnc(N)c(-c3nnnn3-c3cccc(F)c3F)c2)ccc1CN1CCCC1` [I-A-339], the pKi is no less than 7.00.
The molecule `Nc1ncc(-c2ccc(CN3CCCC3)c([N+](=O)[O-])c2)cc1-c1nnnn1-c1cccc(F)c1F` [I-A-340] gave a pKi of no less than 7.00.
For `CNc1ccc(-c2cnc(N)c(-c3nnnn3-c3cccc(F)c3F)c2)cc1C#N` [I-A-341] the value was no less than 7.00; for `COCC(=O)Nc1ccc(-c2cnc(N)c(-c3nnnn3-c3cccc(F)c3F)c2)cc1` [I-A-342], no less than 7.00; for `Nc1ncc(-c2ccc(CN3CCCC3)cc2)cc1-c1nnnn1-c1cccc(Cl)c1F` [I-A-343], no less than 7.00.
For `CC(=O)Nc1cccc(-c2cnc(N)c(-c3nnnn3-c3cccc(Cl)c3F)c2)c1` [I-A-344] the value was no less than 7.00.
Consider `CCOC(=O)Cn1cc(-c2cnc(N)c(-c3nnnn3-c3cccc(F)c3F)c2)cn1` [I-A-345], for which the negative-log Ki (pKi) is no less than 7.00.

The values above are taken from patent US8232406B2, “c-MET protein kinase inhibitors” (Vertex Pharmaceuticals Incorporated, priority 2006, dated 2012).
